Measurements taken from US20230009608A1, “GRK2 INHIBITORS AND USES THEREOF” (Cygnal Therapeutics, Inc., priority 2020, published 2023).
pIC50: −log10 of the molar value.

Key:
GRK2 [1] = target: T1, GRK2 (Homo sapiens, UniProt P25098); test: ADPGlo GRK2 Inhibition Assay (Example 8); type: biochemical
T1 construct: purchased SignalChem A14-10G
T1 sequence (P25098 1-689): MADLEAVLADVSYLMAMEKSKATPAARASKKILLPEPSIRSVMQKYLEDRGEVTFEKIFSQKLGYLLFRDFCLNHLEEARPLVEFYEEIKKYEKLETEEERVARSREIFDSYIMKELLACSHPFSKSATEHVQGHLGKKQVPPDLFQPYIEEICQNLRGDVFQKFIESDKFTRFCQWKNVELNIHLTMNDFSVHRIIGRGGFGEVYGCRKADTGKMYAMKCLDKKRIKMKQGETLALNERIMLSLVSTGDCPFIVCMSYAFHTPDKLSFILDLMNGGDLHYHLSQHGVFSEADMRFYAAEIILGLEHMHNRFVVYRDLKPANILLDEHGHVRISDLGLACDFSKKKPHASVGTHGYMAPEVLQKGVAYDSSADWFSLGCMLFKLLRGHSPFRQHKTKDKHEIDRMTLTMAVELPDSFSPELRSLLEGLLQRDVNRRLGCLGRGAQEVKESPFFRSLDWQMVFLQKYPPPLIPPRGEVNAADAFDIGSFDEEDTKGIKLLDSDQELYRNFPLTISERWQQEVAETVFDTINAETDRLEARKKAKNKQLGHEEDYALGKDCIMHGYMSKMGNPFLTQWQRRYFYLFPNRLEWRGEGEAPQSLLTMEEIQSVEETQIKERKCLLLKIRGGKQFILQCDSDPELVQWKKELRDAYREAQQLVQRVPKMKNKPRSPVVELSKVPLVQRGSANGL
In short: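 GRK2 (15 nM 2× enzyme solution) was preincubated 15 min with compound, then reacted 180 min at room temperature with 2× mix of 20 μM ATP plus GRKtide in HEPES pH 7.5, MgCl2, Tween-20, DTT. ADP was detected by ADP-Glo luminescence. Percent inhibition was normalised to enzyme and no-enzyme controls, with dose-response curves from threefold dilutions starting at 100 μM.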

[2] = tested on: PAXF1657 control empty vector cell line; test: 7-day proliferation assay, PAXF1657 control empty vector cell line (Example 9); type: cell-based; conditions: 168 h; Cell Line: PAXF1657 empty vector (EV) cell line; 7-day; read-out: C: 7-day proliferation assay: IC50 GeoMean
In short: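 Cells plated at 500 per well and attached overnight. Next, 10-point inhibitor series added (30 μM-0.0002 μM, 0.3% DMSO) and a day-0 viability plate read. Then, after 3 days, medium with fresh compound. Finally, viability after 4 more days via CellTiter-Glo.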

GRK2 [3] = target: T1, GRK2; test: GRK2 Inhibition Assay (TR-FRET, Example 7); type: biochemical
In short: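 GRK2 at 1 nM preincubated 30 min with compound, then reacted 90 min at room temperature with 7 μM ATP and 50 nM ULight-TopoIIα in HEPES/MgCl2/DTT buffer. Phosphorylation detected by TR-FRET after Eu anti-TopoIIα and EDTA addition, 60 min.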

[4] = ADPGlo GRK2 enzyme assay, read-out: A: Enzymatic GRK2: IC50 (nM) (Example 8)
[5] = TR-FRET GRK2 enzyme assay, read-out: B: Enzymatic GRK2: IC50 (nM) (Example 7)
[6] = Enzyme Assay A, ADPGlo (Example 8), read-out: A: Enzymatic GRK2: IC50 (nM) (Example 8)
[7] = Enzyme Assay B, TR-FRET (Example 7), read-out: B: Enzymatic GRK2: IC50 (nM) (Example 7)

SMILES	IC50 (GRK2 [1]; [6])	IC50 (GRK2 [3]; [7])	pIC50 [2]	further results
CNS(=O)(=O)c1cccc(F)c1CNC(=O)c1cccc(NCc2nnc(-c3ccncn3)n2C)c1			6.14	IC50 (GRK2 [1]; [4]): 7.36 nM; IC50 (GRK2 [3]; [5]): 12.7 nM
C[C@H](NC(=O)c1cccc(NCc2nnc(-c3ccncn3)n2C)c1)c1ncccc1Cl			6.16	IC50 (GRK2 [1]; [4]): 9.6 nM; IC50 (GRK2 [3]; [5]): 16 nM
Cn1nccc1CNC(=O)c1cccc(NCc2nnc(-c3ccncn3)n2C)c1 [drawing 608]	5.7 nM	29 nM	< 4.52	
COc1ncccc1CNC(=O)c1cccc(NCc2nnc(-c3ccncc3)[nH]2)c1 [compound 9]				IC50 (GRK2 [1]; 7.5 nM GRK2, 10 μM ATP, ADP-Glo, read-out: GRK2 IC50 (nM) (Example 8)): 12 nM; IC50 (GRK2 [3]; 1 nM GRK2, 7 μM ATP, TR-FRET, read-out: GRK2 IC50 (nM) (Example 7)): 5.8 nM
Cn1c(CNc2cccc(C(=O)N[C@H]3CCOc4ccccc43)c2)nnc1-c1ccncc1F	44.3 nM	59 nM	5.83	
Cn1c(CNc2cccc(C(=O)N[C@@H]3COCc4ccccc43)c2)nnc1-c1ccncn1 [drawing 851]			< 6.10	IC50 (GRK2 [1]; [4]): 20.2 nM; IC50 (GRK2 [3]; [5]): 11.9 nM
Cn1c(CNc2cccc(C(=O)N[C@H]3c4ccccc4C[C@H]3O)c2)nnc1-c1ccncn1	7.3 nM	24 nM	5.85	
Cn1c(CNc2cccc(C(=O)N[C@H]3CCOc4c(Cl)cccc43)c2)nnc1-c1ccncn1			< 6.00	IC50 (GRK2 [1]; [4]): 33.6 nM; IC50 (GRK2 [3]; [5]): 13.2 nM
CCc1cnccc1CNC(=O)c1cccc(NCc2nnc(-c3ccncn3)n2[C@H]2CCC[C@H](NC)C2)c1				IC50 (GRK2 [1]; [4]): 529 nM; IC50 (GRK2 [3]; [5]): 810 nM
C#Cc1cccc(OS(=O)(=O)F)c1CNC(=O)c1cccc(NCc2nnc(-c3ccncc3)[nH]2)c1			5.81	pIC50 (GRK2 [1]): 8.05; pIC50 (GRK2 [3]): 8.38
C[C@@H](NC(=O)c1cccc(NCc2nnc(-c3ccncn3)n2C)c1)c1ncccc1Cl [drawing 845]			4.57	IC50 (GRK2 [1]; [4]): 12 nM; IC50 (GRK2 [3]; [5]): 15 nM
CC(NC(=O)c1cccc(NCc2nnc(-c3ccncn3)n2C)c1)c1c[nH]cn1 (centres unmarked) [drawing 599]	5.7 nM	60 nM	< 4.52	
Cn1c(CNc2cccc(C(=O)N[C@@H]3CCOc4c(Cl)cccc43)c2)nnc1-c1ccncn1			< 6.33	IC50 (GRK2 [1]; [4]): 8.2 nM; IC50 (GRK2 [3]; [5]): 3.6 nM
Cn1c(CNc2cccc(C(=O)NCc3ccc4nccn4c3)c2)nnc1-c1ccncn1 [drawing 611]	1.7 nM	26 nM	5.53	
C#COc1cccc(OS(=O)(=O)F)c1CNC(=O)c1cccc(NCc2nnc(-c3ccncc3)[nH]2)c1	15.5 nM	7.7 nM	4.88	
CCc1cnccc1CNC(=O)c1cccc(NCc2nnc(-c3ccncn3)n2[C@@H]2CCC[C@H](NC)C2)c1			< 5.34	IC50 (GRK2 [1]; [4]): 456 nM; IC50 (GRK2 [3]; [5]): 57 nM
Cn1c(CNc2cccc(C(=O)NCc3cnn(-c4ccccc4)n3)c2)nnc1-c1ccncn1 [drawing 616]	6.5 nM	18 nM	< 4.52	
Cn1c(CNc2cccc(C(=O)N[C@H]3CCOc4ccc(Cl)cc43)c2)nnc1-c1ccncn1		120 nM	< 4.52	
O=C(NCc1cccnc1C(F)(F)F)c1cccc(NCc2nnc(-c3ccncn3)n2CCCN2CCC[C@H]2CO)c1		1000 nM	< 4.52	

Now from value to molecule, other results behind:

IC50 (GRK2 [1]; [6])	IC50 (GRK2 [3]; [7])	SMILES	pIC50 [2]	further results
20.2 nM	9.4 nM	[2H]C([2H])(Nc1cccc(C(=O)NCc2ccncc2CC)c1)c1nnc(-c2ccncn2)n1C	< 4.52	
2.8 nM	7.2 nM	Cc1ccc2ncc(CNC(=O)c3cccc(NCc4nnc(-c5ccncn5)n4C)c3)n2c1 [drawing 596]	< 4.52	
2.7 nM	12 nM	Cn1c(CNc2cccc(C(=O)NCc3cccc(C#N)c3)c2)nnc1-c1ccncn1 [drawing 591]	< 4.52	
0.5 nM	3.3 nM	Cc1cc2c(cc1CNC(=O)c1cccc(NCc3nnc(-c4ccncn4)n3C)c1)OCCO2 [drawing 588]	6.00	
9.5 nM	6.7 nM	Cn1cccc1CNC(=O)c1cccc(NCc2nnc(-c3ccncn3)n2C)c1 [drawing 585]	6.26	
1.3 nM	7 nM	Cn1c(CNc2cccc(C(=O)N[C@@H]3CCOc4cccnc43)c2)nnc1-c1ccncn1	6.72	
2.32 nM	< 0.8 nM	Cc1cccc([C@H](CO)NC(=O)c2cccc(NCc3nnc(-c4ccncn4)n3CCO)c2)c1	7.30	
9.6 nM	13 nM	Cn1c(CNc2cccc(C(=O)NC3CCOc4cccnc43)c2)nnc1-c1ccncn1 (centres unmarked) [drawing 572]	6.55	
0.96 nM	3.2 nM	Cn1c(CNc2cccc(C(=O)NCc3cnc4ccccn34)c2)nnc1-c1ccncn1	5.83	
22.1 nM	11.6 nM	Cc1cc2c(cc1CNC(=O)c1ccnc(NCc3nnc(-c4ccncn4)n3C)c1)OCCO2	< 6.48	
12 nM	5.8 nM	COc1ncccc1CNC(=O)c1cccc(NCc2nnc(-c3ccncc3)[nH]2)c1 [drawing 424]	< 4.96	
0.79 nM	2.1 nM	Cc1cccc2nnc(CNC(=O)c3cccc(NCc4nnc(-c5ccncn5)n4C)c3)n12	< 4.52	
1.8 nM	12 nM	CCOc1ccc(C(CO)NC(=O)c2cccc(NCc3nnc(-c4ccncn4)n3C)c2)cn1 (centres unmarked) [drawing 577]	< 4.52	
9.4 nM	15 nM	Cn1c(CNc2cccc(C(=O)NCc3ccc4c(c3)CCN4)c2)nnc1-c1ccncn1 [drawing 571]	< 4.52	
9.8 nM	13 nM	Cc1nc(CNC(=O)c2cccc(NCc3nnc(-c4ccncn4)n3C)c2)cs1 [drawing 610]	< 4.52	
5.4 nM	13 nM	COc1cccc(C(CO)NC(=O)c2cccc(NCc3nnc(-c4ccncn4)n3C)c2)c1 (centres unmarked) [drawing 569]	< 4.52	
1.95 nM	< 3.6 nM	O=C(N[C@@H]1COc2ccccc21)c1cccc(NCc2nnc(-c3ccncn3)n2CCO)c1	7.05	
3.3 nM	8.1 nM	Cc1ccc(C(CO)NC(=O)c2cccc(NCc3nnc(-c4ccncn4)n3C)c2)cc1 (centres unmarked) [drawing 575]	< 4.52	
12.9 nM	15.3 nM	Cn1c(CNc2cc(C(=O)N[C@H]3COc4ccccc43)ccn2)nnc1-c1ccncn1	6.32	
9.5 nM	18 nM	Cn1c(CNc2cccc(C(=O)NCc3ccc(-n4ccnn4)cc3)c2)nnc1-c1ccncn1 [drawing 579]	< 4.52	
1.1 nM	8.6 nM	Cc1cccc(C(CO)NC(=O)c2cccc(NCc3nnc(-c4ccncn4)n3C)c2)c1 (centres unmarked) [drawing 589]	6.39	
4.89 nM	0.88 nM	C[C@H](NC(=O)c1cccc(NCc2nnc(-c3ccncn3)n2CCO)c1)c1ncccc1Cl	< 6.66	
4.3 nM	17 nM	Cn1c(CNc2cccc(C(=O)NCc3cnccc3Cl)c2)nnc1-c1ccncn1 [drawing 570]	5.92	
	6.3 nM	O=C(NCc1cccc2c1OCC2)c1cccc(NCc2nnc(-c3ccncc3)n2CCO)c1	5.22	
	7 nM	Cn1c(CNc2cccc(C(=O)N[C@@H]3CCOc4cc(Br)ccc43)c2)nnc1-c1ccncn1	< 4.52	
	11 nM	Cn1c(CNc2cccc(C(=O)N[C@H]3CCOc4cc(Br)ccc43)c2)nnc1-c1ccncn1	< 4.52	
